Assay results as given in patent US20030040504A1, “Ectoparasiticidal compositions and methods of their use” (priority 2001, published 2003).

How the values were obtained:
[1] = cited from earlier work
[2] = at 60° C.; cited from earlier work
[3] = tested on: head lice collected from Bristol school children; test: Filter paper disk test of malathion, OVIDE lotion and Composition II on resistant head lice (Example 1); format: in vivo, head lice (Pediculus capitis); details: for percentage activity of the lice, 100 being all alive, 0 being all dead: impregnated filter paper disk
Procedure: Following approval by the South and West Hospital research ethics committee, three primary schools in south Bristol, U.K. were contacted and arrangements were made with the headmaster/mistress and the school nurse to visit the schools and comb the hair of every child who has parental permission. Head lice were collected from children between 4 years and 11 years of age using plastic louse detector combs.
Head lice were placed and maintained at about 30° C. and about 70% relative humidity in a portable incubator for up to about two hours before being placed on filter paper test disks in small disposable petri dishes. These conditions of maintenance were the optimum for the lice off the human head. These head lice were then randomly distributed to petri dishes containing the control or impregnated disks and their activity was monitored by inspection over a four hour period. Since the portable incubator was designed to function either from the mains or a 12 volt source (cigarette lighter outlet in a car) the checking of lice activity was undertaken after leaving the school.
The disks, 5 cm in diameter, are paper, Whatman No. 1 Control paper disks were prepared by dipping papers into isopropanol and allowed to dry. Paper disks were prepared by dipping the paper into the solution of insecticide and allowed it to dry. Solutions used with the paper disks were 0.5% malathion in isopropanol, OVIDE® (malathion 0.5%) lotion, or Composition II disclosed herein. The dried paper disks were then stored overnight in air tight containers before using them the next day.
In the two subsequent tests, filter paper test disks were also used.
Values are given as percentage activity of the lice, 100 being all alive, 0 being all dead.

head lice = test: Viability of head lice on filter paper (Example 2); format: in vivo, head lice (Pediculus capitis)
Procedure: The viability of head lice was tested on filter paper under conditions as described in Example 1.

[4] = rat, guinea pig, rabbit, hamster, dog or human; cited from earlier work

c1ccc2c(c1)CCCC2 [1,2,3,4-tetrahydronaphthalene]
symptoms observed with acute exposures in humans [1]: transient liver damage; production of green-gray urine; CNS excitant at low concentration; depressant at high concentration; nephrotoxic (renal system damage); cataracts; liver and kidney damage; and cytotoxic to ascites cells in culture during short-term mutagenicity testing | Solubility in Water [2]: < 0.01 % weight

CCOC(=O)CC(SP(=S)(OC)OC)C(=O)OCC (stereo not drawn) [Malathion, [(dimethoxyphosphinothioyl)thio]butanedioic acid diethyl ester]
percentage activity of the lice, 100 being all alive, 0 being all dead ([3]; Time 0 mins): 100% | percentage activity of the lice, 100 being all alive, 0 being all dead ([3]; Time 1 mins): 100% | percentage activity of the lice, 100 being all alive, 0 being all dead ([3]; Time 5 mins): 100% | percentage activity of the lice, 100 being all alive, 0 being all dead ([3]; Time 10 mins): 100% | percentage activity of the lice, 100 being all alive, 0 being all dead ([3]; Time 20 mins): 100% | percentage activity of the lice, 100 being all alive, 0 being all dead ([3]; Time 30 mins): 100% | percentage activity of the lice, 100 being all alive, 0 being all dead ([3]; Time 60 mins): 100% | percentage activity of the lice, 100 being all alive, 0 being all dead ([3]; Time 90 mins): 90% | percentage activity of the lice, 100 being all alive, 0 being all dead ([3]; Time 120 mins): 80% | percentage activity of the lice, 100 being all alive, 0 being all dead ([3]; Time 180 mins): 60% | percentage activity of the lice, 100 being all alive, 0 being all dead ([3]; Time 240 mins): 50% | lice killed ([3]; after about 4 hours): approximately 50% | Percent of Lice Still Alive (head lice; After 1 minute): 100% | Percent of Lice Still Alive (head lice; After 5 minutes): 100% | Percent of Lice Still Alive (head lice; After 10 minutes): 100% | Percent of Lice Still Alive (head lice; After 20 minutes): 100% | Percent of Lice Still Alive (head lice; After 30 minutes): 100% | Percent of Lice Still Alive (head lice; After 60 minutes): 100% | Percent of Lice Still Alive (head lice; After Minutes: None): 100%

C=C(C)C1CC=C(C)CC1 (stereo not drawn) [Dipentene, 1-methyl-4-(1-methylethenyl)cyclohexene]
symptoms observed with acute exposures in humans [1]: increased bile flow; hypothermia; increased cytochrome P450 content; hematuria (blood in urine); albuminuria (serum globulin in urine); tachycardia (rapid heart rate); increased allergic contact eczema; and no CNS involvement | metabolic conversion to α-terpineol or 1-terpinen-4-ol [4]: not metabolically converted to either α-terpineol or to 1-terpinen-4-ol

CC1=CCC(O)(C(C)C)CC1 (stereo not drawn) [1-terpinen-4-ol, 1-methyl-4-isopropyl-delta-cyclohexene-4-ol]
symptoms observed with acute exposures in humans [1]: CNS depression; cyanosis in extremities; increased urine volume; anti-microbial activity (α-terpineol does not have this activity); and greatly decreased allergic contact eczema compared to dipentene
